Assay results from article PMC6718946 (Toxicology Reports, 2019).
Values joined by “and” are separate entries in the source; they are usually repeats but may differ in a detail not shown here. Equal entries are not always repeated. Where two headings read alike, the source gives them in different places.

Key:
[1] = target: acetylcholinesterase (AChE) (Electrophorus electricus, UniProt O42275); details: for IC50: estimated from Fig. 1
AChE [2] = details: cited from earlier work
Artemia salina [3] = test: Toxicology assay on Artemia salina model; details: for Mortality of A. salina: 24 h
AChE [4] = details: cited from earlier work; remark: listed apart in the source
AChE [5] = details: cited from earlier work; remark: listed apart in the source
Artemia salina [6] = details: in vivo; cited from earlier work

Chain of acetylcholinesterase (AChE) (O42275 24-633): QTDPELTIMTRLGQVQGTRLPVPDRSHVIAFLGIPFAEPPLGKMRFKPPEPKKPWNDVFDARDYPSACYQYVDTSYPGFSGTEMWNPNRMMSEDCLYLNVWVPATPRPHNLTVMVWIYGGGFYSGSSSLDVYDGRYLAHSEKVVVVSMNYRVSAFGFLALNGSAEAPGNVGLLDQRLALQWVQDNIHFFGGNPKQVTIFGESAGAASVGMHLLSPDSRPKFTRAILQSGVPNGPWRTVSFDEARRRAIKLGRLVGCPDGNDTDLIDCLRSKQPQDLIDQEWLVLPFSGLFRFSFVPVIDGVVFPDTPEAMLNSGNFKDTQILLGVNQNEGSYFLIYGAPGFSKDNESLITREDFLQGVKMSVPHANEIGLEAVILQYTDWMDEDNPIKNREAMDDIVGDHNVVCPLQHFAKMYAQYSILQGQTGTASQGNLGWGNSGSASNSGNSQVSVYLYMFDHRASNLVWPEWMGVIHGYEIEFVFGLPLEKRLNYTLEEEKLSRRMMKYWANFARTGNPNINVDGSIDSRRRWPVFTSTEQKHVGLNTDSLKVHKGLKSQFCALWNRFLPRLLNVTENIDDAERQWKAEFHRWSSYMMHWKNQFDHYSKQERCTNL

O=c1cccc2n1CC1CC2CN(C(=S)NC23CC4CC(CC(C4)C2)C3)C1 (centres unmarked) [Compound U-12, N-1-Adamantylcytisine-12-thiocarbamide]
Inhibition mechanism ([1]; Lineweaver-Burk analysis): Uncompetitive
IC50 ([1]; 30 °C, pH 8.0, 1.25% DMSO): ~3390 µM and 3390 µM
IC50 ([1]; expressed in g L^−1): ≈ 1.4 g L^−1
IC50 ([1]; expressed in ppm): 1400 ppm
Ki ([1]; read-out: Ki (inhibition constant), Lineweaver-Burk analysis): 70 µM

C[n+]1c2ccccc2cc2ccccc21 [N-methylacridinium]
Inhibition mechanism (AChE [2]): competitive

C=CCNC(=O)N1C[C@H]2C[C@H](C1)c1cccc(=O)n1C2 [Compound A-63, N-Allylcytisine-12-carbamide]
Inhibition mechanism ([1]; Lineweaver-Burk analysis): mixed
Inhibition mechanism ([1]; Lineweaver-Burk analysis, listed as A63): Mixed inhibition
IC50 ([1]; 30 °C, pH 8.0, 1.25% DMSO): ~1470 µM and 1470 µM
IC50 ([1]; expressed in g L^−1): ≈ 0.4 g L^−1
IC50 ([1]; expressed in ppm): 400 ppm
α´ (effect on Vmax) ([1]; mixed inhibition parameter): 0.05
Mortality of A. salina (Artemia salina [3]; at 1000 ppm): 3%
Mortality of A. salina (Artemia salina [3]; at 2000 ppm): 3%
Toxicity classification according to Artemia salina test (Artemia salina [3]; class by percent mortality of nauplii): non-toxic (0–10% non-toxic compound)
Effect on A. salina viability (Artemia salina [3]; concentration less than 1000 ppm): did not affect
Effect on A. salina viability (Artemia salina [3]; concentration less than 2000 ppm): not affected

1-Hydroxyquinopimaric acid [Compound U-201]
Inhibition mechanism ([1]; Lineweaver-Burk analysis): Competitive

COc1ccc2c3c1O[C@H]1C[C@@H](O)C=C[C@@]31CCN(C)C2 [galanthamine]
Inhibition mechanism (AChE [4]): competitive

C=CCc1ccc(OC)cc1 [estragole]
Inhibition mechanism (AChE [5]): mixed AChE inhibition

C=C(C)C1CC=C(C)C(=O)C1 (centres unmarked) [S-carvone]
Inhibition mechanism (AChE [5]): mixed AChE inhibition

Cytisine-12-carbamide [Compound A-36]
Inhibition mechanism ([1]; Lineweaver-Burk analysis): Competitive

CNC(=O)Oc1ccc2c(c1)[C@]1(C)CCN(C)[C@@H]1N2C [Eserine]
Effect on larvae (Artemia salina [6]): larval paralysis
Inhibition of AChE activity in Artemia salina (Artemia salina [6]): strongly inhibit

CC[N+](C)(C)c1cccc(O)c1 [edrophonium]
Inhibition mechanism (AChE [2]): competitive

CC12CCC(CC1=O)C2(C)C (centres unmarked) [camphor]
Inhibition mechanism (AChE [5]): mixed AChE inhibition
